Assay results reported in the METLIN SMRT retention time set (Domingo-Almenara et al. 2019).

Assay: gradient 5% acetonitrile 3 min, to 50% in 2 min, to 85% in 15 min, held 3 min, 100 µL/min
Conditions: column: Zorbax Extend-C18 2.1 x 50 mm; eluents: water / acetonitrile, 0.1% formic acid
In short: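 In both positive and negative ionization mode, a quadrupole time-of-flight mass spectrometer coupled to HPLC analyzed pure standards run in mixtures of ~100 molecules. The Zorbax Extend-C18 column (2.1 × 50 mm, 1.8 μm) was operated at 100 μL/min with water and acetonitrile, each containing 0.1% formic acid. The dead volume was 40 μL and the dwell volume 900 μL. Retention time came from adduct peaks that were computationally picked and individually inspected by hand.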

SMILES	RP-LC retention time [s]
CCNC(=O)N1CC(Oc2cccc(-c3nc(C)no3)c2)C1	705
Cc1ccc(-n2c(N3CCCC(C(=O)NCc4ccccc4Cl)C3)nc3ccsc3c2=O)cc1 (stereo not drawn)	946
COc1ccccc1NC(=O)C(C)C1CCN(C(=O)Nc2ccc(Cl)cc2)CC1 (stereo not drawn)	938
COc1ccc(-c2cc3c(=O)n(Cc4nc(-c5ccccc5OC)oc4C)ccn3n2)cc1	975
Cc1ccc(C)c(NC(=O)CN2CCC(c3nc(-c4cccs4)no3)CC2)c1	724
Cc1ccc(-c2nc(NC(=O)c3sc(C)nc3C)sc2C)cc1	1000
Cc1nc(N2CCN(c3ccccn3)CC2)nc2c1C(=O)CC(c1ccc(Cl)cc1)C2 (stereo not drawn)	823
CN(CCc1noc(C2CN(Cc3cc(Cl)ccc3F)C2)n1)S(C)(=O)=O	608
Cc1ccc(CN2N=C(C(=O)N3CCCCC3)S(=O)(=O)c3ccccc32)cc1	974
CCc1nc2cc(N3CCC(C(=O)Nc4ccccc4OC)CC3)cnc2nc1CC	942
CCCN1CCN(CCCNC(=O)CCCn2c(=O)c3cccn3c3ccc(F)cc32)CC1	584
O=C1CC(c2ccccc2Cl)Cc2nc(N3CCN(Cc4ccc5c(c4)OCO5)CC3)ncc21 (stereo not drawn)	765
CCCOc1cccc2c1CCN(Cc1ccc(F)cc1)C2=O	1040
Cc1nn(-c2nc(-c3ccc(Cl)cc3)cs2)c(C)c1CC(=O)N1CCCCC1C (stereo not drawn)	1310
CC(C)n1cnc2cc(CNC(=O)c3ccsc3)ccc21	579
Cc1ccccc1CC(=O)NCC(=O)Nc1nc2ccccc2[nH]1	639
CCOc1ccc(-n2c(=O)c3sccc3n(Cc3nc(-c4ccccc4Cl)no3)c2=O)cc1	1020
Cc1ccc(CNS(=O)(=O)c2ccc(-c3c(C)noc3C)cc2)cc1	996
O=C(Nc1ccc(OCC(=O)N2CCCN(c3ncccn3)CC2)nc1)C1CC1	612
COC(=O)c1ncn2c1C(=O)N(c1cccc(C)c1C)C(C)(C(=O)NCc1ccccc1)C2 (stereo not drawn)	708
O=C(O)c1nnn(-c2ccc(C(F)(F)F)cc2)c1C(F)(F)F	824
Cc1ccccc1-c1noc(-c2nn(-c3cccc(F)c3)ccc2=O)n1	941

SMILES	RP-LC retention time [s]
COc1nc2ccccc2nc1N1CCCC(C(=O)N2CCN(c3ccccc3)CC2)C1 (stereo not drawn)	1220
O=C(N[C@H]1C[C@@H]2C[C@H]1N(C(=O)Nc1ccc(Cl)cc1F)C2)c1cccs1	855
Cn1nc2n(c1=O)CCN(C(=O)c1ccsc1)CC2	570
CC(C)NC(=O)c1ccc2c(c1)CCCN2S(=O)(=O)c1ccccc1	878
COc1cc(C(=O)N2CCN(c3cc(C(C)C)n4cnnc4n3)CC2)cc(OC)c1OC	613
CNC(=O)c1cn(-c2ccc(SCC(=O)Nc3ccc4c(c3)OCCO4)nn2)cn1	645
COCCNS(=O)(=O)c1cc(-c2[nH]ncc2C(=O)N2CCCC2)oc1C	591
COC(=O)c1ccc(C(=O)NCc2nc(C)no2)cc1	637
O=C1NC(C(=O)Nc2ccc(F)cc2)Cn2cccc21 (stereo not drawn)	666
CN1C(=O)c2cc(C(=O)NCCCc3ccccc3)nn2CC1(C)C(=O)NC1CCCCC1 (stereo not drawn)	854
O=c1c2c(CO)c(-c3ccccc3)nn2ccn1Cc1cccc(F)c1	920
O=C(NCc1ccccc1Cl)c1ccc2c(c1)CCN2C(=O)C1CC1	856
COCCc1nncn1C1CCN(S(=O)(=O)c2ccccc2C(F)(F)F)CC1	720
Cc1ccnc(N2CCC(C(=O)NCCCN3CCCc4ccccc43)CC2)n1	665
O=C(Cn1cnc2cc3c(cc21)OCCO3)Nc1ccc2c(c1)OCCCO2	622
CCN(CC)C(=O)CC(c1cc(OC)c(OC)c(OC)c1)N1Cc2ccccc2C1=O (stereo not drawn)	769
NC(=O)C1CCN(C(=O)c2ccc(Cl)c(Cl)c2)CC1	656
O=[N+]([O-])c1c(-c2nc3ccc(Cl)cn3c2Nc2ccc(Cl)cc2)ccc2c1OCO2	1000
O=C([C@@H]1C[C@H](F)CN1S(=O)(=O)c1ccc(Br)cc1)N1CCCCC1	865
O=C(Nc1ccc(Nc2ccncc2)cc1)c1ccc(Nc2ccnc3ccc([N+](=O)[O-])cc23)cc1	636
Nc1nc(-c2ccc(Cl)cc2)nn1C(=O)C1CC1	945
Cn1c(N2CCN(C(=O)c3ccc4c(c3)OCO4)CC2)cc(=O)n(C)c1=O	637

SMILES	RP-LC retention time [s]
CCOc1ccc(CNC(=S)Nc2ccc3nc(N4CCN(C)CC4)cc(C)c3c2)cc1	614
Cc1noc(C)c1C(=O)N1CCCC1Cc1noc(-c2cnccn2)n1 (stereo not drawn)	661
CCN1CCCn2nc(C3CCN(C(=O)COc4cccc(Cl)c4)CC3)cc2C1=O	751
COc1ccc2[nH]cc(CCn3ccc4c(cnc5nc(-c6ccc(Cl)cc6)nn54)c3=O)c2c1	990
CCCn1c(=O)c2c(C(=O)NCc3ccc(Cl)cc3)cc(=O)n(CCC)c2n(C)c1=O	1060
O=C(Nc1ccc(OC(F)(F)F)cc1)C1CCCN(c2ccc(=O)n(-c3cccc(Cl)c3)n2)C1 (stereo not drawn)	1090
Cc1ccc2[nH]c(=O)c(CCC(=O)NC(C)c3cn(C)nc3C)cc2c1 (stereo not drawn)	618
CCCc1nnsc1C(=O)N1CC(c2nc(Cc3ccccc3OC)no2)C1	898
COC(=O)c1ccc2c(=O)n(-c3cccc(C)c3)c(N3CCSCC3)nc2c1	1110
Cc1nc(CCNS(=O)(=O)c2ccc(Oc3ccccc3)cc2)cs1	845
COc1ccc(-c2cc(N3CCN(C(=O)Cc4ccc(Br)cc4)CC3)n[nH]2)cc1	842
CSc1ccc(Cl)c(C(=O)N2CC(=O)Nc3ccccc32)c1	796
COc1cc2c(cc1OC)CN(C(=O)c1cc(-c3cccs3)[nH]n1)CC2	703
CC1CCN(C(=O)Cn2nc(-c3nc(-c4cccc(Cl)c4)no3)ccc2=O)CC1	1040
CCOC(=O)c1c(C)[nH]c(C(=O)N2CCCC(C(=O)NCc3ccc(C)o3)C2)c1C (stereo not drawn)	790
CCCN(CC1CCOC1)C(=O)Nc1ccc(Cl)cc1C (stereo not drawn)	639
CCOC(=O)C1=C(CN2CCN(Cc3ccc4c(c3)OCO4)CC2)NC(=O)NC1c1ccc(C)cc1 (stereo not drawn)	585
NC(=O)c1cc2c(s1)N(CC1CC1)CCCC2	827
CCCN1CCN(CCNC(=O)C2CCCN(c3ncc(-c4ccccc4)cn3)C2)CC1 (stereo not drawn)	639
CCOc1cccc(CN2CCc3nc(N4CCN(c5ccccc5)CC4)ncc3C2)c1	785
CCN1CCN(c2ncc3c(n2)CCN(Cc2cccc(Br)c2)C3)CC1	550
CN1C(=O)c2cc(C(=O)N3CCC(C(N)=O)CC3)nn2CC1(C)C(=O)NC1CCCCCC1 (stereo not drawn)	956

SMILES	RP-LC retention time [s]
CCN1C(=O)c2cccc3c(NC(=O)CSc4ccc(Cl)cc4)ccc1c23	861
Cc1cc(F)cc2c(=O)c3c([nH]c12)CCN(CC(=O)Nc1ccccc1)C3	616
O=C(CCc1cccc2[nH]ccc12)NCc1ccc(N2CCOCC2)cc1	714
O=C(NC1CC1)c1ccc(N2CCC(NCc3cc(Br)ccc3O)C2)nc1 (stereo not drawn)	576
CCNC(=O)N1CCCC(c2cccc(C(=O)NCCCN3CCCCC3)c2)C1 (stereo not drawn)	596
O=C(O)c1cc2ccccc2cc1Nc1ccccc1	1140
Cc1nc(-c2noc(-c3cccnc3)n2)cn1CC(=O)NC1CCCC1	646
Cc1ccc(-c2nnc(SCc3noc(CCC(=O)Nc4cc(C)on4)n3)o2)cc1	846
COc1ccccc1-c1ccc(N2CCN(C(=O)NC3CCCCC3)CC2)nn1	601
Cc1ccc(-c2nnc(Cc3nc(-c4cccc(F)c4)no3)o2)cc1F	1110
Cc1ccc(-c2nnc(SCc3cc(=O)n4oc(C)cc4n3)o2)cc1	759
O=C(NCc1ccco1)C1CCN(c2nc3ccccc3nc2C(F)(F)F)CC1	1000
CC(C)CNC(=O)c1cn(-c2cc(-c3nc(C4CC4)no3)ccn2)cn1	646
Cn1c(CC2CCN(S(=O)(=O)Cc3ccc(F)cc3Cl)C2)nc2cccnc21 (stereo not drawn)	650
Cc1ccc(NS(=O)(=O)c2cc(-c3[nH]ncc3C(=O)N3CCCC3)oc2C)c(Cl)c1	741
CCOc1ccccc1C(=O)Nc1c(-c2ccccc2)nc2ccccn12	685
CN(C)c1ccc(C(CNC(=O)c2ccccc2[N+](=O)[O-])N2CCOCC2)cc1 (stereo not drawn)	560
Cc1ccn2c(NC(=O)c3cccc([N+](=O)[O-])c3C)c(-c3ccccc3)nc2c1	677
CCCNc1cc(N2CCC(CCC(=O)NCC3CC3)CC2)ncn1	560
CCN1CCCn2nc(C3CCN(C(=O)c4cccc(C(F)(F)F)c4)CC3)cc2C1=O	785
CC(=O)c1ccc(NC(=O)c2noc3c2CCCC3)cc1	871
CCc1ccc(-c2csc(Nc3cc(C)ccn3)n2)cc1	1040
